Laboratory results published in patent US11034650B2, “Compounds useful for treating a Mannheimia haemolytica or Histophilus somni infection” (Intervet Inc., priority 2016, dated 2021).
In brackets after ≈: the same amount, converted by molar mass.

Tests used:
Type in all cases: cell-based
[1] = test system: Mannheimia haemolytica MH 6357 (M7/2, reference strain, cattle infection strain); test: MIC, broth-microdilution (CLSI VET01-A4), strain MH 6357; conditions: Mannheimia haemolytica strain MH 6357, broth-microdilution; unit assumed
Procedure, shortened: (§1)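 MIC is the lowest compound concentration showing no visible growth by eye, read from doubling-dilution microdilution trays. Method followed CLSI VET01-A4, with interpretation under CLSI VET01-S3.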

[2] = test system: Mannheimia haemolytica MH 13065 (XB0446-6003.9, BRD field isolate); test: MIC, broth-microdilution (CLSI VET01-A4), strain MH 13065; conditions: Mannheimia haemolytica strain MH 13065, broth-microdilution; unit assumed
Procedure, shortened: as §1

[3] = test system: Pasteurella multocida PM 12080 (IV102277-0093, BRD field isolate); test: MIC, broth-microdilution (CLSI VET01-A4), strain PM 12080; conditions: Pasteurella multocida strain PM 12080, broth-microdilution; unit assumed
Procedure, shortened: as §1

[4] = test system: Pasteurella multocida PM 6391 (ATCC 43137, reference strain); test: MIC, broth-microdilution (CLSI VET01-A4), strain PM 6391; conditions: Pasteurella multocida strain PM 6391, broth-microdilution; unit assumed
Procedure, shortened: as §1

[5] = test system: Mannheimia haemolytica MH 6374 (ATCC 33396, reference strain); test: MIC, broth-microdilution (CLSI VET01-A4), strain MH 6374; conditions: Mannheimia haemolytica strain MH 6374, broth-microdilution; unit assumed
Procedure, shortened: as §1

[6] = test system: Mannheimia haemolytica MH 13093 (XB0472-6014.1, BRD field isolate); test: MIC, broth-microdilution (CLSI VET01-A4), strain MH 13093; conditions: Mannheimia haemolytica strain MH 13093, broth-microdilution; unit assumed
Procedure, shortened: as §1

[7] = test system: Pasteurella multocida PM 10775 (080130003051, BRD field isolate); test: MIC, broth-microdilution (CLSI VET01-A4), strain PM 10775; conditions: Pasteurella multocida strain PM 10775, broth-microdilution; unit assumed
Procedure, shortened: as §1

[8] = test system: Mannheimia haemolytica MH 12587 (1071, BRD field isolate, macrolide-resistance: erm+, E+); test: MIC, broth-microdilution (CLSI VET01-A4), strain MH 12587; conditions: Mannheimia haemolytica strain MH 12587, broth-microdilution; unit assumed
Procedure, shortened: as §1

[9] = test system: Pasteurella multocida PM 6267 (P 2225 (L386), reference strain, mouse infection strain); test: MIC, broth-microdilution (CLSI VET01-A4), strain PM 6267; conditions: Pasteurella multocida strain PM 6267, broth-microdilution; unit assumed
Procedure, shortened: as §1

[10] = test system: Mannheimia haemolytica MH 10720 (154, BRD field isolate); test: MIC, broth-microdilution (CLSI VET01-A4), strain MH 10720; conditions: Mannheimia haemolytica strain MH 10720, broth-microdilution; unit assumed
Procedure, shortened: as §1

| Compound | MIC MH 6357 [1] [µg/mL] | MIC MH 13065 [2] [µg/mL] | MIC PM 12080 [3] [µg/mL] | MIC PM 6391 [4] [µg/mL] | MIC MH 6374 [5] [µg/mL] | MIC MH 13093 [6] [µg/mL] | MIC PM 10775 [7] [µg/mL] | MIC MH 12587 [8] [µg/mL] | MIC PM 6267 [9] [µg/mL] | MIC MH 10720 [10] [µg/mL] |
| --- | --- | --- | --- | --- | --- | --- | --- | --- | --- | --- |
| CC(C)([C@H](NC(=O)c1ccc(C#Cc2ccc(CNCc3ccncc3)nc2)cc1)C(=O)NO)S(C)(=O)=O [Compound 371] | 1.6 (≈ 2.99 µM) | 1.6 (≈ 2.99 µM) | 0.2 (≈ 0.373 µM) | 0.2 (≈ 0.373 µM) | 1.6 (≈ 2.99 µM) | 3.1 (≈ 5.79 µM) | ≤ 0.1 | 3.1 (≈ 5.79 µM) | 0.2 (≈ 0.373 µM) | 0.8 (≈ 1.49 µM) |
| Cc1cnc(CNCc2ccc(C#Cc3ccc(C(=O)N[C@H](C(=O)NO)C(C)(C)O)cc3)s2)o1 [Compound 299] | 0.2 (≈ 0.414 µM) | 0.4 (≈ 0.829 µM) | 0.4 (≈ 0.829 µM) | ≤ 0.1 | 0.4 (≈ 0.829 µM) | 0.4 (≈ 0.829 µM) | ≤ 0.1 | 0.8 (≈ 1.66 µM) | 0.4 (≈ 0.829 µM) | ≤ 0.1 |
| CC[C@H](C)[C@H](NC(=O)c1ccc(C#Cc2cccc(CNC3CC3)c2)cc1)C(=O)NO [Compound 144] | 6.3 (≈ 15 µM) | 12.5 (≈ 29.8 µM) | 3.1 (≈ 7.39 µM) | 12.5 (≈ 29.8 µM) | 12.5 (≈ 29.8 µM) | 12.5 (≈ 29.8 µM) | 0.4 (≈ 0.953 µM) | 25 (≈ 59.6 µM) | 3.1 (≈ 7.39 µM) | 1.6 (≈ 3.81 µM) |
| CON=C(C)[C@H](NC(=O)c1ccc(C#Cc2ccc(CNCc3ccnc(Cl)c3)cc2)cc1)C(=O)NO [Compound 389] | 0.8 (≈ 1.54 µM) | 1.6 (≈ 3.08 µM) | 0.4 (≈ 0.769 µM) | ≤ 0.1 | 1.6 (≈ 3.08 µM) | 1.6 (≈ 3.08 µM) | 0.4 (≈ 0.769 µM) | 0.4 (≈ 0.769 µM) | 3.1 (≈ 5.96 µM) | 0.8 (≈ 1.54 µM) |
| COCC(C)NCc1ccc(C#Cc2ccc(C(=O)N[C@H](C(=O)NO)C(C)C)cc2)cc1 (stereo partly shown) [Compound 198] | 3.1 (≈ 7.09 µM) | 3.1 (≈ 7.09 µM) | 0.2 (≈ 0.457 µM) | 0.4 (≈ 0.914 µM) | 6.3 (≈ 14.4 µM) | 6.3 (≈ 14.4 µM) | ≤ 0.1 | 12.5 (≈ 28.6 µM) | ≤ 0.1 | 0.8 (≈ 1.83 µM) |
| COc1ccc(CNCc2ccc(C#Cc3ccc(C(=O)N[C@H](C(=O)NO)C(C)(C)O)cc3)s2)cc1 [Compound 295] | ≤ 0.1 | 0.2 (≈ 0.394 µM) | ≤ 0.1 | 0.4 (≈ 0.788 µM) | 0.4 (≈ 0.788 µM) | 0.4 (≈ 0.788 µM) | ≤ 0.1 | 0.8 (≈ 1.58 µM) | 0.8 (≈ 1.58 µM) | ≤ 0.1 |
| CC(C)(C(NC(=O)c1ccc(C#Cc2ccc(CNCc3ccncc3)cc2)cc1)C(=O)NO)[N+](=O)[O-] (stereo not shown) [Compound 278] | 0.4 (≈ 0.798 µM) | 0.4 (≈ 0.798 µM) | ≤ 0.1 | ≤ 0.1 | 0.4 (≈ 0.798 µM) | 0.4 (≈ 0.798 µM) | ≤ 0.1 | 0.8 (≈ 1.6 µM) | ≤ 0.1 | ≤ 0.1 |
| CNCc1ccc(C#Cc2ccc(C(=O)N[C@H](C(=O)NO)C(C)C)cc2)cc1 [Compound 207] | 12.5 (≈ 32.9 µM) | 6.3 (≈ 16.6 µM) | 0.8 (≈ 2.11 µM) | 0.8 (≈ 2.11 µM) | 12.5 (≈ 32.9 µM) | 12.5 (≈ 32.9 µM) | ≤ 0.1 | 12.5 (≈ 32.9 µM) | 0.2 (≈ 0.527 µM) | 3.1 (≈ 8.17 µM) |
| CC(C)(O)[C@H](NC(=O)c1ccc(C#Cc2ccc(CNCc3ccnc(Cl)c3)cc2)cc1)C(=O)NO [Compound 229] | 0.4 (≈ 0.789 µM) | 0.2 (≈ 0.394 µM) | ≤ 0.1 | ≤ 0.1 | 0.4 (≈ 0.789 µM) | 0.4 (≈ 0.789 µM) | ≤ 0.1 | 0.4 (≈ 0.789 µM) | ≤ 0.1 | ≤ 0.1 |
| CC[C@H](C)[C@H](NC(=O)c1ccc(C#Cc2ccc(CN3CC(C)OC(C)C3)cc2)cc1)C(=O)NO (stereo partly shown) [Compound 191] | 6.3 (≈ 13.2 µM) | 6.3 (≈ 13.2 µM) | ≤ 0.1 | ≤ 0.1 | 25 (≈ 52.3 µM) | 12.5 (≈ 26.2 µM) | ≤ 0.1 | 25 (≈ 52.3 µM) | ≤ 0.1 | 1.6 (≈ 3.35 µM) |
| CC(C)(C(NC(=O)c1ccc(C#Cc2ccc(CNCc3cccnc3)cc2)cc1)C(=O)NO)[N+](=O)[O-] (stereo not shown) [Compound 286] | 0.4 (≈ 0.798 µM) | 0.4 (≈ 0.798 µM) | ≤ 0.1 | 0.8 (≈ 1.6 µM) | 0.8 (≈ 1.6 µM) | 0.8 (≈ 1.6 µM) | ≤ 0.1 | 1.6 (≈ 3.19 µM) | 0.8 (≈ 1.6 µM) | ≤ 0.1 |
| COc1ccc(CNCc2ccc(C#Cc3ccc(C(=O)N[C@H](C(=O)NO)C(C)(C)SC)cc3)s2)cc1 [Compound 305] | 0.8 (≈ 1.49 µM) | 0.8 (≈ 1.49 µM) | 0.4 (≈ 0.744 µM) | 0.4 (≈ 0.744 µM) | 0.8 (≈ 1.49 µM) | 1.6 (≈ 2.98 µM) | ≤ 0.1 | 3.1 (≈ 5.77 µM) | 0.8 (≈ 1.49 µM) | 0.2 (≈ 0.372 µM) |
| CC(=O)[C@H](NC(=O)c1ccc(C#Cc2ccc(CNC3CC3)cc2)cc1)C(=O)NO [Compound 396] | 1.6 (≈ 3.95 µM) | 3.1 (≈ 7.65 µM) | 0.4 (≈ 0.987 µM) | ≤ 0.1 | 1.6 (≈ 3.95 µM) | 3.1 (≈ 7.65 µM) | 0.8 (≈ 1.97 µM) | 0.4 (≈ 0.987 µM) | 12.5 (≈ 30.8 µM) | 1.6 (≈ 3.95 µM) |
| CC[C@H](C)[C@H](NC(=O)c1ccc(C#Cc2ccc(CN3CCS(=O)(=O)CC3)cc2)cc1)C(=O)NO [Compound 142] | 6.3 (≈ 12.7 µM) | 12.5 (≈ 25.1 µM) | 0.4 (≈ 0.804 µM) | 0.4 (≈ 0.804 µM) | 12.5 (≈ 25.1 µM) | 12.5 (≈ 25.1 µM) | ≤ 0.1 | 25 (≈ 50.2 µM) | 0.2 (≈ 0.402 µM) | 3.1 (≈ 6.23 µM) |
| CSC(C)(C)[C@H](NC(=O)c1ccc(C#Cc2ccc(CNCc3ccco3)cc2)cc1)C(=O)NO [Compound 250] | 0.4 (≈ 0.814 µM) | 0.4 (≈ 0.814 µM) | ≤ 0.1 | 0.2 (≈ 0.407 µM) | 0.8 (≈ 1.63 µM) | 0.4 (≈ 0.814 µM) | ≤ 0.1 | 0.8 (≈ 1.63 µM) | ≤ 0.1 | ≤ 0.1 |
| CC(C)(O)[C@H](NC(=O)c1ccc(C#Cc2ccc(CNCc3cccnc3)cc2)cc1)C(=O)NO [Compound 228] | 0.8 (≈ 1.69 µM) | 0.4 (≈ 0.846 µM) | ≤ 0.1 | ≤ 0.1 | 0.4 (≈ 0.846 µM) | 0.8 (≈ 1.69 µM) | ≤ 0.1 | 1.6 (≈ 3.39 µM) | ≤ 0.1 | ≤ 0.1 |
| CC(C)(O)[C@H](NC(=O)c1ccc(C#Cc2ccc(CN3CCOCC3)cc2)cc1)C(=O)NO [Compound 222] | 0.8 (≈ 1.77 µM) | 1.6 (≈ 3.54 µM) | 0.2 (≈ 0.443 µM) | ≤ 0.1 | 1.6 (≈ 3.54 µM) | 1.6 (≈ 3.54 µM) | ≤ 0.1 | 1.6 (≈ 3.54 µM) | ≤ 0.1 | 0.2 (≈ 0.443 µM) |
| CC(C)[C@H](NC(=O)c1ccc(C#Cc2ccc(CNCc3ccnc(Cl)c3)cc2)cc1)C(=O)NO [Compound 168] | 0.4 (≈ 0.815 µM) | 0.8 (≈ 1.63 µM) | 0.2 (≈ 0.407 µM) | 0.4 (≈ 0.815 µM) | 0.8 (≈ 1.63 µM) | 0.8 (≈ 1.63 µM) | ≤ 0.1 | 1.6 (≈ 3.26 µM) | ≤ 0.1 | 0.2 (≈ 0.407 µM) |
| CC(C)([C@H](NC(=O)c1ccc(C#Cc2ccc(CNCc3ccccc3)nc2)cc1)C(=O)NO)S(C)(=O)=O [Compound 351] | 0.4 (≈ 0.748 µM) | 1.6 (≈ 2.99 µM) | ≤ 0.1 | 0.4 (≈ 0.748 µM) | 0.4 (≈ 0.748 µM) | 0.8 (≈ 1.5 µM) | ≤ 0.1 | 1.6 (≈ 2.99 µM) | 0.4 (≈ 0.748 µM) | ≤ 0.1 |
| CSC(C)(C)[C@H](NC(=O)c1ccc(C#Cc2ccc(CNCc3ncc(C)o3)nc2)cc1)C(=O)NO [Compound 347] | 0.8 (≈ 1.58 µM) | 1.6 (≈ 3.15 µM) | 0.8 (≈ 1.58 µM) | 0.8 (≈ 1.58 µM) | 1.6 (≈ 3.15 µM) | 1.6 (≈ 3.15 µM) | ≤ 0.1 | 3.1 (≈ 6.11 µM) | 1.6 (≈ 3.15 µM) | 0.2 (≈ 0.394 µM) |
| CC(C)([C@H](NC(=O)c1ccc(C#Cc2ccc(CNCC3CCCO3)cc2)cc1)C(=O)NO)S(C)(=O)=O (stereo partly shown) [Compound 273] | 6.3 (≈ 11.9 µM) | 3.1 (≈ 5.88 µM) | ≤ 0.1 | 0.2 (≈ 0.379 µM) | 3.1 (≈ 5.88 µM) | 6.3 (≈ 11.9 µM) | ≤ 0.1 | 6.3 (≈ 11.9 µM) | ≤ 0.1 | 0.8 (≈ 1.52 µM) |
| C=CCNCc1ccc(C#Cc2ccc(C(=O)N[C@H](C(=O)NO)C(C)(C)O)cc2)cc1 [Compound 220] | 3.1 (≈ 7.35 µM) | 0.8 (≈ 1.9 µM) | 0.4 (≈ 0.949 µM) | 0.4 (≈ 0.949 µM) | 0.8 (≈ 1.9 µM) | 1.6 (≈ 3.8 µM) | ≤ 0.1 | 3.1 (≈ 7.35 µM) | ≤ 0.1 | ≤ 0.1 |
